From patent US6936615B2, “Heteroaryl derivatives and their use as medicaments” (Zentaris GmbH, priority 2000, dated 2005)

What was measured:
[1] = test system: human cervical carcinoma cell lines KB/HeLa (ATCC/CCL17); experiment: XTT test for cellular dehydrogenase activity (proliferation test), KB/HeLa; type: cell-based; conditions: values determined from 5 substance concentrations, 45 h incubation + 3 h XTT, read-out: XTT-Assay IC50 KB/HeLa (in-vitro cytotoxicity)
Protocol: (§1) In a proliferation test, the antiproliferative activity of the substance D-43411 was examined using established tumor cell lines. In the test used, the cellular dehydrogenation activity is determined, which makes it possible to determine the vitality of the cell and, indirectly, the cell count. The cell lines used are the human cervical carcinoma cell lines KB/HeLa (ATCC/CCL17), the murine lymphocyte leukaemia L1210 (ATCC CCL-219), the human breast adenocarcinoma line MCF7/ATCC HTB22) and the ovary adenocarcinoma line SKOV-3 (ATCC HTB77). These are established cell lines which are very well characterized and were obtained from ATCC and cultured.
(§2) The adherently growing tumor cell lines HeLa/KB, SKOV-3 and MCF7 and the L1210 leukaemia line, which grows in suspension, were cultivated under standard conditions in an incubator with gas inlet at 37° C., 5% CO2 and 95% atmospheric humidity. […]
(§3) For the XTT assay, 1 mg/ml of XTT (sodium 3′-[1-(phenylaminocarbonyl)-3,4-tetrazolium]-bis(4-methoxy-6-nitro)benzenesulfonic acid) is dissolved in RPMI-1640 medium without Phenol Red. […] The cell plates are then incubated in the incubator with gas inlet for a further 3 h, and the optical density (OD490nm) is determined in a photometer.
(§4) Using the OD490nm obtained, the inhibition in percent relative to the control is calculated. […]

[2] = test system: ovary adenocarcinoma line SKOV-3 (ATCC HTB77); experiment: XTT test for cellular dehydrogenase activity (proliferation test), SKOV-3; type: cell-based; conditions: Homo sapiens, SK-OV-3, values determined from 5 substance concentrations, 45 h incubation + 3 h XTT, read-out: XTT-Assay IC50 SKOV-3 (in-vitro cytotoxicity)
Protocol: as §1, §2, §3, §4

[3] = test system: murine lymphocyte leukaemia L1210 (ATCC CCL-219); experiment: XTT test for cellular dehydrogenase activity (proliferation test), L1210; type: cell-based; conditions: Mus musculus, values determined from 5 substance concentrations, 45 h incubation + 3 h XTT, read-out: XTT-Assay IC50 L1210 (in-vitro cytotoxicity)
Protocol: as §1, §2, §3, §4

[4] = test system: human breast adenocarcinoma line MCF7 (ATCC HTB22); experiment: XTT test for cellular dehydrogenase activity (proliferation test), MCF7; type: cell-based; conditions: test period of 48 h
Protocol: as §1, §2, §3, §4

Structure (SMILES)	melting point	IC50 [1]	IC50 [2]	IC50 [3]	IC50 ([4]; Homo sapiens, values determined from 5 substance concentrations, read-out: XTT-Assay IC50 MCF7 (in-vitro cytotoxicity))	inhibition (antiproliferative effect) in MCF7 ([4]; at 3.16_g/ml)
COc1cc(OC)cc(N2CCN(C(=O)c3ccnc4ccccc34)CC2)c1	146 to 148 °C					
COc1cc(OC)cc(N2CCN(C(=O)C3c4ccccc4NC4C=CC=CC43)CC2)c1 [D-43411]		< 0.3 ng/mL	< 0.3 ng/mL	< 0.3 ng/mL	> 3160 ng/mL	18%
